Experimental data from US5864033A, “Adenosine kinase inhibitors” (priority 1995, dated 1999).
Values joined by “and” are separate entries in the source; they are usually repeats but may differ in a detail not shown here. Equal values may be shown once. “Also recorded” adds a separate entry of the source.

How the values were obtained:
[1] = system: rat cardiomyocytes; conditions: cited from earlier work
[2] = system: mice; conditions: cited from earlier work
[3] = system: dog hearts; conditions: cited from earlier work
[4] = system: isolated rat hearts; conditions: normoxic, hypoxic, anoxic or ischemic conditions; alone; cited from earlier work
[5] = system: isolated guinea pig hearts; conditions: absence of ADA inhibition; cited from earlier work
[6] = system: cardiac adenosine kinase; conditions: systemic or, in some cases, oral administration
[7] = system: neutrophil adherence to endothelial cells; experiment: Inhibition of neutrophil adherence to endothelial cells; type: cell-based, human; conditions: for inhibition of neutrophil adhesion to endothelial cells: fMLP-stimulated human neutrophils, 2 hours, 37° C.; for reversal of inhibition of neutrophil adhesion by adenosine deaminase: with adenosine deaminase 0.125 U/ml
Protocol: The ability of an adenosine kinase inhibitor to affect neutrophil adherence to fibroblasts and endothelial cells was evaluated in a cell culture model.
These incubations were carried out in the presence of fMLP-stimulated human neutrophils isolated from whole blood (1.25×10^6 /ml) with or without adenosine deaminase (0.125 U/ml). At the end of the incubation, the medium was removed and the monolayers of fibroblasts or endothelial cells and adherent neutrophils were fixed by addition of formaldehyde (3.7%) and, after washing to remove non-adherent neutrophils, adherent neutrophils were stained with Weigart's hematoxylin and counted under a light microscope.

[8] = system: pentylenetetrazol (PTZ)-induced seizures in mice; experiment: PTZ-induced seizures; type: in vivo, male Swiss Webster mice; conditions: for attenuation of chemical and electroshock induced seizures: experimental animal models; for oral anticonvulsant activity: 45 minutes prior to PTZ; for Percent Seizure: 45 min prior to PTZ, N = 7; for Seizure Score: mean ± standard deviation
[9] = system: canine coronary thrombosis / cyclic flow reductions; experiment: Canine model of platelet-induced coronary thrombosis (Folts; cyclic flow reductions); type: in vivo, dog
Protocol: GP-1-515 was tested in a canine model of platelet-induced coronary thrombosis (Folts, J., Circulation, 1991, 83[Suppl. IV]:IV-3-IV-14). In this model, platelets cyclically aggregate and embolize causing cyclic flow reductions (CFRs) that are quantitated by the frequency and the change in coronary blood flow from low point to peak with each cycle.

[10] = system: isolated guinea pig ileum longitudinal muscle; experiment: Inhibition of contraction in isolated ileum; conditions: for inhibition of contraction in the isolated ileum: electrically stimulated; for reversal of inhibition of contraction: with 8-sulfophenyltheophylline (8SPT) or adenosine deaminase (ADA)
Protocol: The ability of adenosine kinase inhibition to affect stimulated contraction of muscle strips from the isolated ileum has been investigated.
Parallel platinum electrodes were used to deliver electrical current at 1 minute intervals at a voltage adequate to induce contraction of 90% of maximal. The adenosine kinase inhibitors, GP-1-515 or GP-1-547 were added to the tissue baths at different concentrations, with or without either the adenosine receptor antagonist, 8-sulphophenyltheophylline (8SPT) or adenosine deaminase (ADA), and the effects on contraction monitored.

[11] = system: anesthetized male dogs; experiment: Preclinical model of stable angina (repeated pacing-induced ischemia); type: in vivo, dog; conditions: intravenous infusion
Protocol: GP-1-515, was evaluated for its ability to prevent cumulative cardiac dysfunction associated with repeated episodes of pacing-induced ischemia.
Anesthetized male dogs were instrumented to measure regional myocardial wall thickening during right atrial pacing (Young & Mullane, Am. J. Physio., 1991, 261:1570-1577). Animals were subjected to six repeated episodes of pacing. A continuous IV infusion of 1 μg/kg/min of GP-1-515 or saline (control) was administered post pace #1.

[12] = system: isolated guinea pig hearts; experiment: Improved functional recovery in isolated hearts (low flow ischemia/reperfusion); conditions: for Preischemic Flow: Conc. 0.3 (M) as printed; for Functional Recovery: Conc. 0.3 as printed, p < 0.05 vs. Control
Protocol: The ability of a number of adenosine kinase inhibitors to improve the recovery of post-ischemic function was examined in an isolated guinea pig heart model.
Isolated guinea pig hearts were cannulated via the ascending aorta and-attached to a perfusion apparatus according to the method of Langendorff. The hearts were perfused at a constant pressure of 60 cm of H2 O with a modified Krebs-Hanseleit buffer (pH 7.4) at 37° C. Left ventricular developed pressures (LVDP) were monitored continuously using a latex balloon attached to a pressure transducer. Coronary flows were measured gravimetrically by timed collection of pulmonary effluent. Following equilibration of the hearts for a period of 30 minutes, the hearts were subjected to 45 minutes of low flow ischemia, by reducing the perfusion pressure to 10 cm of H2 O, and then reperfused for 30 minutes by restoring the pressure to its original level (60 cm of H2 O). The adenosine kinase inhibitors BP-1-238, GP-1-515 and GP1-547 were added to the perfusion buffer at the final concentrations specified.

OC[C@H]1O[C@@H](n2cnc3c2N=CNC[C@H]3O)C[C@@H]1O [2'-deoxycoformycin]
effect on adenosine release ([1]; inhibition of adenosine deaminase alone): no effect on adenosine release

Nc1ncnc2c1c(I)cn2[C@@H]1O[C@H](CO)[C@@H](O)[C@H]1O [5-iodotubercidin]
flaccidity and locomotor activity [2]: pronounced general flaccidity and much-reduced spontaneous locomotor activity | hypothermia [2]: cause hypothermia | effect in ischemia and reperfusion [3]: inconsistent effects | perfusate adenosine concentration [4]: no increase in perfusate adenosine concentration

NC[C@H]1O[C@@H](n2cnc3c(N)ncnc32)[C@H](O)[C@@H]1O [GP-1-238, 5'-amino-5'-deoxyadenosine]
increase of adenosine release without ADA inhibition [5]: not apparent in the absence of ADA inhibition | inhibition of cardiac adenosine kinase in vivo [6]: completely inhibited adenosine kinase in vivo | increase in adenosine release ([1]; together with ADA inhibition): 6 fold

CNc1ncnc2c1ncn2[C@@H]1O[C@H](CN)[C@@H](O)[C@H]1O [GP-1-272]
inhibition of neutrophil adhesion to endothelial cells [7]: inhibit neutrophil adhesion to endothelial cells; also recorded: dose-dependent inhibition | reversal of inhibition of neutrophil adhesion by adenosine deaminase [7]: reversed by adenosine deaminase treatment; also recorded: reversal of these inhibitions

C[C@H]1O[C@@H](n2cc(I)c3c(N)ncnc32)[C@H](O)[C@@H]1O [GP-1-456, 5'-deoxy-5-iodotubercidin, reference compound]
flaccidity and locomotor activity [2]: pronounced general flaccidity and much-reduced spontaneous locomotor activity | hypothermia [2]: cause hypothermia | inhibition of neutrophil adhesion to endothelial cells [7]: inhibit neutrophil adhesion to endothelial cells; also recorded: dose-dependent inhibition | reversal of inhibition of neutrophil adhesion by adenosine deaminase [7]: reversed by adenosine deaminase treatment; also recorded: reversal of these inhibitions | inhibition of PTZ induced seizures ([8]; IP 1, 5 and 10 mg/kg): dose-dependent inhibition | reversal of inhibition of PTZ induced seizures ([8]; IP […] with theophylline 34 mg/kg or 8-sulfophenyltheophylline 70 mg/kg): reversal of this inhibition by the central adenosine receptor antagonist theophylline but not the peripheral antagonist 8-sulfophenyltheophylline | attenuation of chemical and electroshock induced seizures [8]: potent effects | oral anticonvulsant activity [8]: exhibit oral anticonvulsant activity

NC[C@H]1O[C@@H](n2nc(Br)c3c(N)ncnc32)[C@H](O)[C@@H]1O [GP-1-515]
animals in which CFRs were abolished ([9]; Folts model, dogs): 3 of 8 and 3 out of 8 | frequency and change in flow of CFRs where not abolished ([9]; dog, in vivo): reduced both the frequency and the change in flow | inhibition of contraction in the isolated ileum [10]: Inhibition of contraction; also recorded: attenuate contraction; also recorded: dose-dependent inhibition | reversal of inhibition of contraction [10]: reversal by both 8SPT and ADA; also recorded: reversal of these inhibitions | decline in function / wall thickening with pacing-induced ischemia [11]: attenuates the decline in wall thickening; also recorded: attenuated the decline in function | Preischemic Flow [12]: 6.5 ± 0.3 mL/min/g | Functional Recovery [12]: 79.0 ± 3.4 % preischemic LVDP

NC[C@H]1O[C@@H](n2nc(I)c3c(N)ncnc32)[C@H](O)[C@@H]1O [GP-1-547]
inhibition of contraction in the isolated ileum [10]: Inhibition of contraction; also recorded: attenuate contraction; also recorded: dose-dependent inhibition | reversal of inhibition of contraction [10]: reversal by both 8SPT and ADA; also recorded: reversal of these inhibitions | Preischemic Flow [12]: 6.2 ± 0.3 mL/min/g | Functional Recovery [12]: 79.0 ± 3.1 % preischemic LVDP

C[C@H]1O[C@@H](n2nc(I)c3cncnc32)[C@H](O)[C@@H]1O [GP-1-560, 3-iodo-1-(5'-deoxy-B-D-ribofuranosyl)pyrazolo[3,4-d]pyrimidine]
attenuation of chemical and electroshock induced seizures [8]: potent effects | Latency To First Seizure ([8]; oral 30 mg/kg): 4.5 min | Percent Seizure ([8]; oral 30 mg/kg): 71% | Seizure Score ([8]; oral 30 mg/kg): 0.71 ± 0.5 | Percent Seizure ([8]; oral 50 mg/kg): 43% | Seizure Score ([8]; oral 50 mg/kg): 1.0 ± 0.9 | Latency To First Seizure ([8]; oral 50 mg/kg, p < 0.05 vs. Control): 7.0 min | oral anticonvulsant activity [8]: exhibit oral anticonvulsant activity
